These results are taken from patent publication US20260355330A1, “CELL PENETRATING PEPTIDES AND USES THEREOF” (VECTIOPEP OÜ, priority 2022, published 2026).

One test deals with CHO-K1 cells. The test is described as follows: Delivery of reporter mRNA with CPPs in cell culture (luciferase luminescence 24 h post-transfection). Format: cell-based. The settings on record: for Average RLU/mg (reporter levels post-transfection of mRNA): firefly luciferase mRNA, 0.1 μg per well, charge ratio 3:1, serum containing media, 24 h, RLU normalised to total protein in lysate. As for the experimental part:
FIG. 1: Delivery of reporter mRNA with CPPs in cell culture—evaluation of reporter levels post-transfection (relative light units normalised to total protein in the cell lysate (RLU/mg)). Naked mRNA treated cells were used as controls and Lipofectamine3000 (LF3000) was used to compare the transfection efficacy with a liposome-based transfection reagent.
Adherent CHO-K1 cells were grown in Dulbecco's Modified Eagle's Medium (DMEM), which were supplemented with 0.1 mM non-essential amino acids, 1.0 mM sodium pyruvate, 100 U/ml penicillin, and […]. For complete media, 10% (final) fetal bovine serum (FBS) was added. Cells were maintained in a humidified incubator at 37 °C, 5% CO2. Cell viability and confluence was assessed daily and the cell density was reduced regularly. For cell counting, we used the CytoSMART cell counter accompanied by 0.4% trypan blue staining prior measurement. The multi-well plates with cell cultures used for experiments were incubated in a humidified incubator at 37 °C, 5% CO2.
For in vitro experiments 0.1 μg of nucleic acid (plasmid DNA (pDNA) or mRNA) was used per 96-well plate well. For CPP/NA complex formation, the diluted NA was mixed with CPP in water. Complexes were formed based on the theoretical charge ratio (CR) of positive charges from the peptide in excess to the negative charges from nucleic acid backbone, at charge ratio 3:1 with peptide in excess. Commercial reagent Lipofectamine3000 (LF3000) was used according to the manufacturer's recommendations for the transfection of adherent cells.
For reporter luminescence (expressed from firefly luciferase encoding mRNA or plasmid pDNA) assessment in adherent cell culture, 10,000 cells per 96-well plate well were seeded in 100 μl of media one day prior to transfection. Shortly before transfection, cell media was replaced with 100 μl of serum containing (10% foetal bovine serum) DMEM media. CPPs and mRNA or pDNA were mixed at a charge ratio 3:1 in ultrapure water and incubated at room temperature before addition to cells in serum containing media. Cells were transfected with 0.1 μg of mLuc per well.
24 hours post-transfection, the media was aspirated, cells were washed with 1×PBS, and 30 μl of lysis buffer (0.1% Triton X100 in 1×PBS) was added. Cells were incubated with lysis buffer for 20 min. to lyse the cells. From the lysate, 20 μl was transferred to a black frame white well 96-well plate for luminescence measurement after addition of substrate luciferin (PerkinElmer) in buffer. The luminescence signal was detected with GloMax® 96 microplate luminometer equipped with GloMax® 1.9.2 software (Promega). RLU values were converted to RLU/mg by normalization to total protein in cell lysate, reflecting total number of cells. For protein detection, a Pierce™ BCA Protein Assay Kit was used.
The present inventors have previously reported CPPs developed from the NickFect (NF) and PepFect (PF) families for plasmid (pDNA), siRNA and miRNA delivery (see, e.g. WO 2020/144317, WO 2010/039088 and WO 2012/113846). With the emergence of mRNA-based therapeutics, it was decided to investigate peptides for their ability to deliver mRNA. It was assumed that CPPs that are efficient for siRNA and miRNA delivery, e.g. histidine containing CPPs (Porosk et. al. (2019)), may be good candidates for the delivery of mRNA. Therefore, CPPs from each main family (NF55-, PF14- and NF70-derived CPPs) were tested for mRNA delivery/transfection. Naked mRNA treated and untreated cells were used as control groups. LF3000 was used to compare the transfection efficacy of liposome-based transfection reagents with the CPPs (FIG. 1).

A further test has as its system spleen of BALB/c mice. The test is described as follows: In vivo delivery of mRNA with CPPs - reporter levels in the spleen. The settings on record: for Efficacy of mRNA delivery into the spleen in vivo: in words, FIG. 5 / Table 5; for Reporter levels in the spleen (RLU): mRNA, tail vein injection, spleens harvested 16 hours after single injection, whole tissue homogenate. As for the experimental part: FIG. 5: Delivery of mRNA with CPPs in vivo—reporter levels in the spleen. Spleens were harvested post mortem 16 hours post-injection. The reporter levels (RLU) were evaluated from the whole tissue homogenate.
The transfection complexes (CPP/mRNA) were formed using 10 μg of mRNA mixed with each peptide at indicated charge ratios (CRs) in MQ water in a final volume of 100 μl. CRs were calculated theoretically and account for both the positive charges of the peptide and negative charges of the nucleic acid. The transfection complexes (CPP/mRNA and CPP/pDNA) were formed using 50 μg of mRNA mixed with each peptide at indicated charge ratios (CRs) in MQ water in a final volume of 168 μl. The complexes were incubated for 30 minutes at room temperature and then mixed with equal volume of 10% glucose (resulting in a final solution of 5% glucose in a total volume of 200 μl for 10 μg dose groups and 336 μl for 50 μg dose groups) and immediately injected intravenously via the tail vein.
The reporter gene (luciferase) expression levels were evaluated from the tissue homogenate post mortem 16-24 h after single injection.
CPPs and mRNA complexes were injected through the tail vein of BALB/c mice, spleens were harvested 16 hours after the single injection and reporter signal was measured from the whole tissue homogenate (FIG. 5 and Table 5).

Positions of bridges follow the written chain, without caps; N, C: chain ends. Residues, ends and D or L forms follow the SMILES beside them. Chains are numbered I, II in the order given. *: point of attachment. Docosanoyl = CCCCCCCCCCCCCCCCCCCCCC(=O)*; Palmitoyl = CCCCCCCCCCCCCCCC(=O)*

As to `CCCCCCCCCCCCCCCC(=O)N[C@@H](C)C(=O)NCC(=O)N[C@@H](Cc1ccc(O)cc1)C(=O)N[C@@H](CC(C)C)C(=O)N[C@@H](CC(C)C)C(=O)NCC(=O)NCCC[C@H](N)C(=O)N[C@H](C(=O)N[C@@H](CC(N)=O)C(=O)N[C@@H](CC(C)C)C(=O)N[C@@H](CCCCN)C(=O)N[C@@H](C)C(=O)N[C@@H](CC(C)C)C(=O)N[C@@H](C)C(=O)N[C@@H](C)C(=O)N[C@@H](CC(C)C)C(=O)N[C@@H](C)C(=O)N[C@@H](CCCCN)C(=O)N[C@@H](C)C(=O)N[C@H](C(=O)N[C@@H](CC(C)C)C(N)=O)[C@@H](C)CC)[C@@H](C)CC` [NF419], the “Average RLU/mg (reporter levels post-transfection of mRNA)” value (“Average RLU/mg” for short) in the test on CHO-K1 cells is 491 000 000 RLU/mg. For the same compound, in the test on spleen of BALB/c mice, the “Efficacy of mRNA delivery into the spleen in vivo” value is listed as “delivered mRNA into the spleen in vivo with high efficacy” and the “Reporter levels in the spleen (RLU)” value is recorded as 179 114 RLU.
As for `CCCCCCCCCCCCCCCCCC(=O)N[C@@H](C)C(=O)NCC(=O)N[C@@H](Cc1ccc(O)cc1)C(=O)N[C@@H](CC(C)C)C(=O)N[C@@H](CC(C)C)C(=O)NCC(=O)N[C@@H](CCN)C(=O)N[C@H](C(=O)N[C@@H](CC(N)=O)C(=O)N[C@@H](CC(C)C)C(=O)N[C@@H](CCCCN)C(=O)N[C@@H](C)C(=O)N[C@@H](CC(C)C)C(=O)N[C@@H](C)C(=O)N[C@@H](C)C(=O)N[C@@H](CC(C)C)C(=O)N[C@@H](C)C(=O)N[C@@H](CCCCN)C(=O)N[C@@H](C)C(=O)N[C@H](C(=O)N[C@@H](CC(C)C)C(N)=O)[C@@H](C)CC)[C@@H](C)CC` [NF559], in the test on CHO-K1 cells, the “Average RLU/mg” value was 563 000 000 RLU/mg. The “Reporter levels in the spleen (RLU)” value in the test on spleen of BALB/c mice is listed as 56 280 RLU.
Turning to `CCCCCCCCCCCCCCCC(=O)N[C@@H](C)C(=O)NCC(=O)N[C@@H](Cc1ccc(O)cc1)C(=O)N[C@@H](CC(C)C)C(=O)N[C@@H](CC(C)C)C(=O)NCC(=O)NCCCC[C@H](N)C(=O)N[C@H](C(=O)N[C@@H](CC(N)=O)C(=O)N[C@@H](CC(C)C)C(=O)N[C@@H](CCCCN)C(=O)N[C@@H](C)C(=O)N[C@@H](CC(C)C)C(=O)N[C@@H](C)C(=O)N[C@@H](C)C(=O)N[C@@H](CC(C)C)C(=O)N[C@@H](C)C(=O)N[C@@H](CCCCN)C(=O)N[C@@H](C)C(=O)N[C@H](C(=O)N[C@@H](CC(C)C)C(N)=O)[C@@H](C)CC)[C@@H](C)CC` [NF420] (I: H-KINLKALAALAKAIL-NH2 / II: Palmitoyl-AGYLLG; amide I:1-II:C), the “Average RLU/mg” value in the test with CHO-K1 cells is on record as 548 000 000 RLU/mg. The “Reporter levels in the spleen (RLU)” value in the test on spleen of BALB/c mice is listed as 81 271 RLU.
Turning to `CCCCCCCCCCCCCCCCCCCCCC(=O)N[C@@H](C)C(=O)NCC(=O)N[C@@H](Cc1ccc(O)cc1)C(=O)N[C@@H](CC(C)C)C(=O)N[C@@H](CC(C)C)C(=O)NCC(=O)NCCCC[C@H](N)C(=O)N[C@H](C(=O)N[C@@H](CC(N)=O)C(=O)N[C@@H](CC(C)C)C(=O)N[C@@H](CCCCN)C(=O)N[C@@H](C)C(=O)N[C@@H](CC(C)C)C(=O)N[C@@H](C)C(=O)N[C@@H](C)C(=O)N[C@@H](CC(C)C)C(=O)N[C@@H](C)C(=O)N[C@@H](CCCCN)C(=O)N[C@@H](C)C(=O)N[C@H](C(=O)N[C@@H](CC(C)C)C(N)=O)[C@@H](C)CC)[C@@H](C)CC` [NF413] (I: H-KINLKALAALAKAIL-NH2 / II: Docosanoyl-AGYLLG; amide I:1-II:C), in the test on CHO-K1 cells, the “Average RLU/mg” value is given as 678 000 000 RLU/mg. The “Reporter levels in the spleen (RLU)” value with spleen of BALB/c mice is recorded as 50 495 RLU.
`CCCCCCCCCCCCCCCCCCCCCC(=O)N[C@@H](C)C(=O)NCC(=O)N[C@@H](Cc1ccc(O)cc1)C(=O)N[C@@H](CC(C)C)C(=O)N[C@@H](CC(C)C)C(=O)NCC(=O)NCCC[C@H](N)C(=O)N[C@H](C(=O)N[C@@H](CC(N)=O)C(=O)N[C@@H](CC(C)C)C(=O)N[C@@H](CCCCN)C(=O)N[C@@H](C)C(=O)N[C@@H](CC(C)C)C(=O)N[C@@H](C)C(=O)N[C@@H](C)C(=O)N[C@@H](CC(C)C)C(=O)N[C@@H](C)C(=O)N[C@@H](CCCCN)C(=O)N[C@@H](C)C(=O)N[C@H](C(=O)N[C@@H](CC(C)C)C(N)=O)[C@@H](C)CC)[C@@H](C)CC` [NF411]: in the test on CHO-K1 cells, the “Average RLU/mg” value was 2 090 000 000 RLU/mg. In addition, the “Efficiency of mRNA transfection/delivery” value in the test with CHO-K1 cells (in words, FIG. 1 / Table 2, cell culture) is recorded as “the most efficient”. For the same compound, the “Delivery of mRNA compared to NF54” value in the test with CHO-K1 cells (in words, comparator NF54) was “equivalent delivery of mRNA to NF54”. Besides, in the test with CHO-K1 cells (in words, comparator NF55), the “Delivery of mRNA compared to NF55” value is given as “good improvement in delivery of mRNA over NF55”. Besides, in the test on spleen of BALB/c mice, the “Efficacy of mRNA delivery into the spleen in vivo” value is “delivered mRNA into the spleen in vivo with high efficacy” and the “Reporter levels in the spleen (RLU)” value was 161 716 RLU.
Regarding “NF72: SEQ ID NO: 15; HHHHHHYHHGO*ILLKALKALAKAIL; control/comparator construct [reference compound]”, in the test with CHO-K1 cells, the “Average RLU/mg” value was 78 023 RLU/mg.
The same measure, in the same setting: in the case of `CCCCCCCCCCCCCCCCCCCCCC(=O)N[C@@H](C)C(=O)NCC(=O)N[C@@H](Cc1ccc(O)cc1)C(=O)N[C@@H](CC(C)C)C(=O)N[C@@H](CC(C)C)C(=O)NCC(=O)NCC[C@H](N)C(=O)N[C@H](C(=O)N[C@@H](CC(N)=O)C(=O)N[C@@H](CC(C)C)C(=O)N[C@@H](CCCCN)C(=O)N[C@@H](C)C(=O)N[C@@H](CC(C)C)C(=O)N[C@@H](C)C(=O)N[C@@H](C)C(=O)N[C@@H](CC(C)C)C(=O)N[C@@H](C)C(=O)N[C@@H](CCCCN)C(=O)N[C@@H](C)C(=O)N[C@H](C(=O)N[C@@H](CC(C)C)C(N)=O)[C@@H](C)CC)[C@@H](C)CC` [NF423] it was 556 000 000 RLU/mg.
The same measure, in the same setting: in the case of `CCCCCCCCCCCCCCCC(=O)N[C@@H](C)C(=O)NCC(=O)N[C@@H](Cc1ccc(O)cc1)C(=O)N[C@@H](CC(C)C)C(=O)N[C@@H](CC(C)C)C(=O)NCC(=O)NCC[C@H](N)C(=O)N[C@H](C(=O)N[C@@H](CC(N)=O)C(=O)N[C@@H](CC(C)C)C(=O)N[C@@H](CCCCN)C(=O)N[C@@H](C)C(=O)N[C@@H](CC(C)C)C(=O)N[C@@H](C)C(=O)N[C@@H](C)C(=O)N[C@@H](CC(C)C)C(=O)N[C@@H](C)C(=O)N[C@@H](CCCCN)C(=O)N[C@@H](C)C(=O)N[C@H](C(=O)N[C@@H](CC(C)C)C(N)=O)[C@@H](C)CC)[C@@H](C)CC` [NF422] it was 159 000 000 RLU/mg.
